Among the data in patent US9951068B2 (Proximagen Limited, priority 2013, dated 2018) are IC50 values, retold here.

pIC50: −log10 of the molar value. Where a name gives a salt, the structure may show the parent alone.

For data set [1], the target named is human ether a go-go related gene (hERG) K+ channel (Homo sapiens (Human), UniProt Q12809). Put plainly: hERG assay, IonWorks patch clamp electrophysiology. The class given is cell-based. Particulars: Chinese Hamster Lung cell line stably expressing hERG; max assay concentration 11 uM. On the procedure: Compounds of the invention were tested for inhibition of the human ether a go-go related gene (hERG) K^+ channel using IonWorks patch clamp electrophysiology. 8 Point concentration-response curves were generated on two occasions using 3-fold serial dilutions from the maximum assay concentration (11 uM). Electrophysiological recordings were made from a Chinese Hamster Lung cell line stably expressing the full length hERG channel. Single cell ion currents were measured in the perforated patch clamp configuration (100 ug/mL amphoterocin) at room temperature using an IonWorks Quattro instrument. The internal solution contained 140 mM KCl, 1 mM MgCl2, 1 mM EGTA and 20 mM HEPES and was buffered to pH 7.3. The external solution contained 138 mM NaCl, 2.7 mM KCl, 0.9 mM CaCl2, 0.5 mM MgCl2, 8 mM Na2HPO4 and 1.5 mM KH2PO4, and was buffered to pH 7.3. […] This sequence was repeated 5 times at a frequency of 0.25 Hz. Currents were measured from the tail step at the 5th pulse, and referenced to the holding current. Compounds were incubated for 6-7 min prior to a second measurement of the hERG signal using an identical pulse train. […] A control compound (quinidine) was used (see Table 20 below).
A general note: hERG is a cardiac potassium channel; its block is linked to QT prolongation.

For data set [2], the target named is purified recombinantly expressed human SSAO (Homo sapiens (Human), UniProt Q16853). Kind of data set: SSAO enzyme inhibition assay (HRP-coupled hydrogen peroxide detection or 14C-benzaldehyde detection, benzylamine substrate). The class given is biochemical. Particulars: SSAO inhibitory activity, human recombinant SSAO, RT. On the procedure:
All primary assays were performed at RT. with purified recombinantly expressed human SSAO. Enzyme was prepared essentially as described in Öhman et al. (Protein Expression and Purification 46 (2006) 321-331). In addition, secondary- and selectivity assays were performed using SSAO prepared from various tissues or purified rat recombinant SSAO. The enzyme activity was assayed with benzylamine as substrate by measuring either benzaldehyde production, using ^14C-labeled substrate, or by utilizing the production of hydrogen peroxide in a horseradish peroxidase (HRP) coupled reaction. Briefly, test compounds were dissolved in dimethyl sulfoxide (DMSO) to a concentration of 10 mM. Dose-response measurements were assayed by either creating 1:10 serial dilutions in DMSO to produce a 7 point curve or by making 1:3 serial dilutions in DMSO to produce 11 point curves.
In a horseradish peroxidase (HRP) coupled reaction, hydrogen peroxide oxidation of 10-acetyl-3,7-dihydroxyphenoxazine produced resorufin, which is a highly fluorescent compound (Zhout and Panchuk-Voloshina. Analytical Biochemistry 253 (1997) 169-174; Amplex® Red Hydrogen Peroxide/peroxidase Assay kit, Invitrogen A22188). Enzyme and compounds in 50 mM sodium phosphate, pH 7.4 were set to pre-incubate in flat-bottomed microtiter plates for approximately 15 min before initiating the reaction by addition of a mixture of HRP, benzylamine and Amplex reagent. Benzylamine concentration was fixed at a concentration corresponding to the Michaelis constant, determined using standard procedures. Fluorescence intensity was then measured at several time points during 1-2 h, exciting at 544 nm and reading the emission at 590 nm. For the human SSAO assay final concentrations of the reagents in the assay wells were: SSAO enzyme 1 ug/ml, benzylamine 100 uM, Amplex reagent 20 uM, HRP 0.1 U/mL and varying concentrations of test compound. The inhibition was measured as % decrease of the signal compared to a control without inhibitor (only diluted DMSO). The background signal from a sample containing no SSAO enzyme was subtracted from all data points. Data was fitted to a four parameter logistic model and IC50 values were calculated using the GraphPad Prism 4 or XLfit 4 programs.
SSAO activity was assayed using 14C-labeled benzylamine and analysed by measuring radioactive benzaldehyde. In a white 96-well optiplate (Packard), 20 uL of diluted test compound was pre-incubated at room temperature with 20 uL SSAO enzyme for approximately 15 min with continuous agitation. All dilutions were made with PBS. The reaction was initiated by adding 20 uL of the benzylamine substrate solution containing [7-14C] Benzylamine hydrochloride (CFA589, GE Healthcare). The plate was incubated for 1 h as above after which the reaction was stopped by acidification (10 uL 1M aq HCl). Then 90 uL Micro Scint-E solution (Perkin-Elmer) was added to each well and the plate was continuously mixed for 15 min. Phase separation occurred instantly and activity was read in a Topcount scintillation counter (Perkin-Elmer). In the final reaction well, the human recombinant SSAO concentration was 10 ug/ml. In order to optimize sensitivity, the substrate concentration was decreased as compared to the HRP coupled assay in order to get a higher fraction of radioactive product. In the human SSAO assay, benzylamine concentration was 40 uM (0.2 uCi/mL). Data was analysed as above.

Chain of purified recombinantly expressed human SSAO (Q16853 29-763): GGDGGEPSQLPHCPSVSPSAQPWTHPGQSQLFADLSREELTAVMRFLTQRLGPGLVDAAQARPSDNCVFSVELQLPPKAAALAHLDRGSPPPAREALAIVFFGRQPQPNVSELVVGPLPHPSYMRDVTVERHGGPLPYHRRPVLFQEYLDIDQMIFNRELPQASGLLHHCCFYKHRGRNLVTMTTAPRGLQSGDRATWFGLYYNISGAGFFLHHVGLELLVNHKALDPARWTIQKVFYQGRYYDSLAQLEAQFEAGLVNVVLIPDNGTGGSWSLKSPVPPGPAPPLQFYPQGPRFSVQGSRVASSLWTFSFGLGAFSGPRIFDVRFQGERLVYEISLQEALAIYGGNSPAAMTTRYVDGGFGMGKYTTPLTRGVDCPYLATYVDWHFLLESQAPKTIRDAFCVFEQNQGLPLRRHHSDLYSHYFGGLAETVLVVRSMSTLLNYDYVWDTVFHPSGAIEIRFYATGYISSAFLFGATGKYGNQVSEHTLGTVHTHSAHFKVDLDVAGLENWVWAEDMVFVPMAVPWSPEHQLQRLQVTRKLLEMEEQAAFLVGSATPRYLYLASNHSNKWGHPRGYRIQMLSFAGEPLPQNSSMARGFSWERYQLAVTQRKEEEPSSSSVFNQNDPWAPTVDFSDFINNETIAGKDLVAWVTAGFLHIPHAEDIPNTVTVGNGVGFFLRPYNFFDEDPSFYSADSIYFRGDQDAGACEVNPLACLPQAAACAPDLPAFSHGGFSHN
Chain of human ether a go-go related gene (hERG) K+ channel (Q12809 whole entry): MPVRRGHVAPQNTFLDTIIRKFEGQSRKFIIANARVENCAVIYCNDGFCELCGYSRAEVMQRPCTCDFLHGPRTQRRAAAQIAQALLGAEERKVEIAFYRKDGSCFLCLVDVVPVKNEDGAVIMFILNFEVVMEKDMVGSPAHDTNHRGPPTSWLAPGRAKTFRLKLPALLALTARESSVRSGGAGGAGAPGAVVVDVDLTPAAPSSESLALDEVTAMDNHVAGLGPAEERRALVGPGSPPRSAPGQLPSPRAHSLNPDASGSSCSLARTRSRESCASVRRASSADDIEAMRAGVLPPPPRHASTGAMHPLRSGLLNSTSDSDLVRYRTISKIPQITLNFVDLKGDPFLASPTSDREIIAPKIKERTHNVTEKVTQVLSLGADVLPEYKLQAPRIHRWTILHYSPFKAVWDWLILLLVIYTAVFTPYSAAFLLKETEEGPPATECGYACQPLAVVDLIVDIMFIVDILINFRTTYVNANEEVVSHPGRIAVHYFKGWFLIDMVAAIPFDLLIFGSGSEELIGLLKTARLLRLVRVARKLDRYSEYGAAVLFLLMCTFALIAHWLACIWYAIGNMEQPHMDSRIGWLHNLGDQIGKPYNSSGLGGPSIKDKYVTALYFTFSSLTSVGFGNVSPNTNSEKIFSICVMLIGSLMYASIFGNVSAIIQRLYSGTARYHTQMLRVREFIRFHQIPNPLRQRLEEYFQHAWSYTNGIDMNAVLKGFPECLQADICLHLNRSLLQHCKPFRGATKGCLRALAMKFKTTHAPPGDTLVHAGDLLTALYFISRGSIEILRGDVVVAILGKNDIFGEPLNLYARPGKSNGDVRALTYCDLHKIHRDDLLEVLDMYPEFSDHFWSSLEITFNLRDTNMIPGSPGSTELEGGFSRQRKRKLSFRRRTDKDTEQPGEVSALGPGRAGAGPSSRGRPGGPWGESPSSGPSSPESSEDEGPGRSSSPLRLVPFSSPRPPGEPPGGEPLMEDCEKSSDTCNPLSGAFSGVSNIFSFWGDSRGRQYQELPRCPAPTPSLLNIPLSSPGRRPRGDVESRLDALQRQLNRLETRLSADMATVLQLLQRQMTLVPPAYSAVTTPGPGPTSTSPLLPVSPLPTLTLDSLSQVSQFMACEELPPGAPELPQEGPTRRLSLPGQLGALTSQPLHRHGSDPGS

The pIC50 is −log10 of the IC50, conventionally taken in molar units. With `Cc1ccc(-n2c(-c3ccc(N4CCOCC4)nc3)nc3ccncc32)cn1` [Example 64, 4-{5-[3-(6-Methylpyridin-3-yl)-3H-imidazo[4,5-c]pyridin-2-yl]pyridin-2-yl}morpholine], in data set [1], the negative logarithm of the IC50 (pIC50) is below 5.00.
On the same count and under the same terms, under `c1ccc(-n2c(-c3cnc(N4CCOCC4)nc3)nc3ccncc32)cc1` [Example 95, 4-(5-{3-Phenyl-3H-imidazo[4,5-c]pyridin-2-yl}pyrimidin-2-yl)morpholine] stands below 5.00.
On the same count and under the same terms, under `Cc1ccc(-n2c(-c3cnc(N4CCOCC4)nc3)nc3ccncc32)c(F)c1` [Example 53, 4-{5-[3-(2-Fluoro-4-methylphenyl)-3H-imidazo[4,5-c]pyridin-2-yl]pyrimidin-2-yl}morpholine] stands below 5.00; under `NC(=O)NC1CCN(c2ccc(-c3nc4ccncc4n3-c3ccc(Cl)cc3)cn2)CC1` [Example 91, (1-{5-[3-(4-Chlorophenyl)-3H-imidazo[4,5-c]pyridin-2-yl]pyridin-2-yl}piperidin-4-yl)urea; bis(trifluoroacetic acid)], below 5.00; under `Fc1ccc(-n2c(-c3cnc(NC4CCOCC4)nc3)nc3ccncc32)cc1` [Example 20, 5-[3-(4-Fluorophenyl)-3H-imidazo[4,5-c]pyridin-2-yl]-N-(oxan-4-yl)pyrimidin-2-amine], below 5.00.
Same read-out and setting: next, `Cc1ccc(-n2c(-c3cnc(N4CCOCC4)nc3)nc3ccncc32)cc1` [Example 57, 4-{5-[3-(4-Methylphenyl)-3H-imidazo[4,5-c]pyridin-2-yl]pyrimidin-2-yl}morpholine]: below 5.00.
`Cn1cncc1-c1cc2ccncc2n1-c1ccc(Cl)cc1` [Example 136, 5-[1-(4-Chlorophenyl)-1H-pyrrolo[2,3-c]pyridin-2-yl]-1-methyl-1H-im idazole]: the values for the negative logarithm of the IC50 (pIC50) in data set [2] and in data set [1] were above 7.30 and 5.00 to 6.00, respectively.
As for `Clc1ccc(-n2c(-c3cnc(N4CCNCC4)o3)nc3ccncc32)cc1` [Example 18, 1-{5-[3-(4-Chlorophenyl)-3H-imidazo[4,5-c]pyridin-2-yl]-1,3-oxazol-2-yl}piperazine dihydrochloride], the pIC50 in data set [1] is below 5.00.
In data set [1], `O=C1CN(c2ncc(-c3nc4ccncc4n3-c3ccc(F)cc3)cn2)CCN1` [Example 12, 4-{5-[3-(4-Fluorophenyl)-3H-imidazo[4,5-c]pyridin-2-yl]pyrimidin-2-yl}piperazin-2-one] gave a negative-log IC50 (pIC50) below 5.00.
Still for that read-out and setting: under `COCCN(C)c1ncc(-c2nc3ccncc3n2-c2ccc(C)cc2)cn1` [Example 117, N-(2-Methoxyethyl)-N-methyl-5-[3-(4-methylphenyl)-3H-imidazo[4,5-c]pyridin-2-yl]pyrimidin-2-amine] stands below 5.00; under `Clc1ccc(-n2c(-c3ccncc3)nc3ccncc32)cc1` [Example 2, 4-[3-(4-Chlorophenyl)-3H-imidazo[4,5-c]pyridin-2-yl]pyridine], below 5.00.
On the same count and under the same terms, next, `Clc1ccc(-n2c(-c3ccc(CN4CCOCC4)nc3)nc3ccncc32)cc1` [Example 3, 4-({5-[3-(4-Chlorophenyl)-3H-imidazo[4,5-c]pyridin-2-yl]pyridin-2-yl}methyl)morpholine]: below 5.00.
In the case of `Clc1ccc(-n2c(-c3cnc(N4CCOCC4)nc3)nc3ccncc32)cc1` [Example 51, 4-{5-[3-(4-Chlorophenyl)-3H-imidazo[4,5-c]pyridin-2-yl]pyrimidin-2-yl}morpholine], the negative logarithm of the IC50 (pIC50) in data set [2] was above 7.30.
In data set [1], `Cc1ccc(-n2c(-c3ccc(N4CCOCC4)nc3)nc3ccncc32)cc1` [Example 63, 4-{5-[3-(4-Methylphenyl)-3H-imidazo[4,5-c]pyridin-2-yl]pyridin-2-yl}morpholine] gave a pIC50 below 5.00.
For the molecule `Cc1cc(N2CCOCC2)ncc1-c1nc2ccncc2n1-c1ccc(Cl)cc1F` [Example 22, 4-{5-[3-(4-Chloro-2-fluorophenyl)-3H-imidazo[4,5-c]pyridin-2-yl]-4-methylpyridin-2-yl}morpholine], the pIC50 in data set [2] is above 7.30.
With `Nc1ccc(-c2nc3ccncc3n2-c2ccc(Cl)cc2)cn1` [Example 110, 5-[3-(4-Chlorophenyl)-3H-imidazo[4,5-c]pyridin-2-yl]pyridin-2-amine], the pIC50 in data set [1] is below 5.00.
`Fc1cc(Cl)ccc1-n1c(-c2cnc(N3CCOCC3)nc2)nc2ccncc21` [Example 77, 4-{5-[3-(4-Chloro-2-fluorophenyl)-3H-imidazo[4,5-c]pyridin-2-yl]pyrimidin-2-yl}morpholine]: the pIC50 in data set [1] is below 5.00.
Consider `CS(=O)(=O)NC1CCN(c2ccc(-c3nc4ccncc4n3-c3ccc(Cl)cc3)cn2)CC1` [Example 88, N-(1-{5-[3-(4-Chlorophenyl)-3H-imidazo[4,5-c]pyridin-2-yl]pyridin-2-yl}piperidin-4-yl)methanesulfonamide], for which the pIC50 in data set [2] is above 7.30.
`Fc1ccc(-n2c(-c3cnc(N4CCOCC4)c(F)c3)nc3ccncc32)cc1` [Example 98, 4-{3-Fluoro-5-[3-(4-fluorophenyl)-3H-imidazo[4,5-c]pyridin-2-yl]pyridin-2-yl}morpholine]: the pIC50 in data set [1] was below 5.00.
Turning to `O=c1cc(-c2cc3ccncc3n2-c2ccc(Cl)cc2)ccn1C1CC1` [Example 138, 4-[1-(4-Chlorophenyl)-1H-pyrrolo[2,3-c]pyridin-2-yl]-1-cyclopropyl-1,2-dihydropyridin-2-one], the pIC50 in data set [2] was above 7.30.
`Fc1ccc(-n2c(-c3ccc(N4CCOCC4)nc3)nc3ccncc32)cc1` [Example 54, 4-{5-[3-(4-Fluorophenyl)-3H-imidazo[4,5-c]pyridin-2-yl]pyridin-2-yl}morpholine]: the negative logarithm of the IC50 (pIC50) in data set [1] was below 5.00.
For `Fc1ccccc1-n1c(-c2ccc(N3CCOCC3)nc2)nc2ccncc21` [Example 68, 4-{5-[3-(2-Fluorophenyl)-3H-imidazo[4,5-c]pyridin-2-yl]pyridin-2-yl}morpholine], the pIC50 in data set [2] was above 7.30.
Take `CN(C)c1ccc(-c2nc3ccncc3n2-c2ccc(F)cc2)cn1` [Example 71, 5-[3-(4-Fluorophenyl)-3H-imidazo[4,5-c]pyridin-2-yl]-N,N-dimethylpyridin-2-amine]: the pIC50 in data set [1] was below 5.00.
The same measure, in the same setting: next, `Fc1cc(Cl)ccc1-n1c(-c2ccc(N3CCOCC3)nc2)nc2ccncc21` [Example 80, 4-{5-[3-(4-Chloro-2-fluorophenyl)-3H-imidazo[4,5-c]pyridin-2-yl]pyridin-2-yl}morpholine]: below 5.00.
With `Fc1cncc(-c2cc3ccncc3n2-c2ccc(Cl)cc2)c1` [Example 148, 3-[1-(4-Chlorophenyl)-1H-pyrrolo[2,3-c]pyridin-2-yl]-5-fluoropyridine], the pIC50 in data set [2] is above 7.30.
Still for that read-out and setting: under `Cc1ccc(-n2c(-c3ccc(N4CCOCC4)nc3)nc3ccncc32)c(F)c1` [Example 67, 4-{5-[3-(2-Fluoro-4-methylphenyl)-3H-imidazo[4,5-c]pyridin-2-yl]pyridin-2-yl}morpholine] stands above 7.30; under `Clc1ccc(-n2c(-c3ccccn3)cc3ccncc32)cc1` [Example 121, 2-[1-(4-Chlorophenyl)-1H-pyrrolo[2,3-c]pyridin-2-yl]pyridine], above 7.30.
